Assay results as given in patent US4652649A, “Anti-spasmodic agents having a ring in the main chain” (United Pharmaceuticals, Inc., priority 1985, dated 1987).
Structures can show the parent of a compound that is named as a salt.

Columns and labels:
muscarinic receptors = type: binding, rabbit (New Zealand White); details: at a concentration of 1.0 × 10^-5 M; rabbit lung homogenate, 0.1 nM [3H]QNB, 37° C., 60 min
[1] = tested on: gastrointestinal tract, biliary tract, ureter and uterus; details: cited from earlier work

SMILES	% inhibition of 3H[QNB] binding (muscarinic receptors) [%]	decrease spasm of the gastrointestinal tract, biliary tract, ureter and uterus ([1]; in vivo)	atropinic side effects ([1]; salivary and sweat glands, GI glands, the eye or the cardiovascular system)
CCN(CC)CCSC(=O)c1ccc(C(C)(C)C)cc1 [4-t-butyl-benzoyl-thio-S-(2-diethylaminoethyl)-ester.HCl]	21		
CCN(CC)CCSC(=O)C(c1ccccc1)c1ccccc1 [Thiphenamil hydrochloride]		decrease spasm of the gastrointestinal tract, biliary tract, ureter and uterus	without producing characteristic atropinic side effects
